Experimental data published in patent US10851098B2, “Azole amides and amines as alpha v integrin inhibitors” (BRISTOL-MYERS SQUIBB COMPANY, priority 2016, dated 2020).
Read-outs that look alike come from different tables or passages of the source.

Tests used:
[1] = target: human αVβ8 (Homo sapiens, UniProt P06756+P26012); assay: human αVβ8 HTRF binding assay
Description: (§1) All binding assays used the HTRF (homogeneous time resolved fluorescence) technology from Cisbio International, therefore all assays are described as HTRF binding assays. The assay results for the Examples are listed above together with the characterization data. The HTRF binding assays are established for the following integrins: human αVβ6, human αVβ1, human αVβ3, human αVβ5, and human αVβ8. All assays used the following assay buffer: 20 mM Tris, pH 7.4, 1 mM MgCl2, 1 mM MnCl2, 0.01% Tween 20, and 0.01% BSA. Alternatively, a SPA-based assay was used for evaluation of receptor binding. […]

[2] = target: T1, human αVβ6 (Homo sapiens, UniProt P06756+P18564); assay: human αVβ6 HTRF binding assay
T1 construct: purchased R & D systems 3817-AV
T1 sequence (P06756 31-992 limits assumed): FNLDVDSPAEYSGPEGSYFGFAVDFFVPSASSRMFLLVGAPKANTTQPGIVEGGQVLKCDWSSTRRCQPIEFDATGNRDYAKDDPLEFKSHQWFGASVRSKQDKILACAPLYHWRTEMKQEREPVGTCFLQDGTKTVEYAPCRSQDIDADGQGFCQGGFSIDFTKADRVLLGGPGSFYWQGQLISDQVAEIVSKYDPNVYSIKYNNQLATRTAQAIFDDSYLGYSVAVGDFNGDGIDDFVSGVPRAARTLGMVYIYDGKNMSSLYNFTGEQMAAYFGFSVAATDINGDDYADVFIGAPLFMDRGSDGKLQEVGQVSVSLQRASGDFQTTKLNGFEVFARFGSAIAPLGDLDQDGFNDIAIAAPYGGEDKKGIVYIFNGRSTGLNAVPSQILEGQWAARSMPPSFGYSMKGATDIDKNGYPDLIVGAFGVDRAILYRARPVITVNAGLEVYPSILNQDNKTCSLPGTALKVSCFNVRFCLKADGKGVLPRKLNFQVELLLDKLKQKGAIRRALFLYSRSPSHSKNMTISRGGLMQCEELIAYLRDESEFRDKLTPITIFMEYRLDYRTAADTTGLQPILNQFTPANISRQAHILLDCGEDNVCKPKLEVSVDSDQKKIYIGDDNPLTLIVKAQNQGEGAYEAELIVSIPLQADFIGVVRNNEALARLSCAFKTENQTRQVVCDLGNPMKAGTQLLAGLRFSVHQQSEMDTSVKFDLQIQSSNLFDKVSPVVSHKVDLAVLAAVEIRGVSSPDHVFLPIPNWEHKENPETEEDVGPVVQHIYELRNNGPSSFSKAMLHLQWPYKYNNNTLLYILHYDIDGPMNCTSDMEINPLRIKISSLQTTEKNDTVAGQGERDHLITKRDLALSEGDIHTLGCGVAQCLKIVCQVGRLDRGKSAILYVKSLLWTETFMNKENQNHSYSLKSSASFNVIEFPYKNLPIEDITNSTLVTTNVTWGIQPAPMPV
T1 sequence (P18564 22-707 limits assumed): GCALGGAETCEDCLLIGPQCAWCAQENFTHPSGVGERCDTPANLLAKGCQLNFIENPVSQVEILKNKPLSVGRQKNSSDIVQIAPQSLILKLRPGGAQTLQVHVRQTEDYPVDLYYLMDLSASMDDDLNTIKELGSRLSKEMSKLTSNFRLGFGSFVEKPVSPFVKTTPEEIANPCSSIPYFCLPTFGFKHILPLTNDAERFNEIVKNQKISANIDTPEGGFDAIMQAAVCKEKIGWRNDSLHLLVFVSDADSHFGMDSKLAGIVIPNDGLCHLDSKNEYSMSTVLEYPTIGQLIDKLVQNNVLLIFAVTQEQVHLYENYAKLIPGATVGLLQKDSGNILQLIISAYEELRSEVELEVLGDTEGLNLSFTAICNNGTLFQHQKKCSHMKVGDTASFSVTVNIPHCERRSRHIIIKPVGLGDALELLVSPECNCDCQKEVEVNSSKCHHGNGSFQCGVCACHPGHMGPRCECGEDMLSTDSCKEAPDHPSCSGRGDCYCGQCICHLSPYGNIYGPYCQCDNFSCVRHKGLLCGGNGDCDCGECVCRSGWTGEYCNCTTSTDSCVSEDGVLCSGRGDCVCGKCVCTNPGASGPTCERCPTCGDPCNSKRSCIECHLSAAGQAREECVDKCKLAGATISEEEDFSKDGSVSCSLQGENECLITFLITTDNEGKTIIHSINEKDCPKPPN
In short: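 HTRF binding format with biotinylated integrin, FITC-fibronectin and streptavidin-terbium, run in 20 mM Tris pH 7.4, 1 mM MgCl2, 1 mM MnCl2, 0.01% Tween 20, 0.01% BSA. A SPA-based binding assay was an alternative.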

[3] = target: human αVβ1 (Homo sapiens, UniProt P05556+P06756); assay: human αVβ1 HTRF binding assay
Chain of human αVβ1 (P06756 31-992 limits assumed): as the sequence (P06756 31-992 limits assumed) above
Chain of human αVβ1 (P05556 21-728 limits assumed): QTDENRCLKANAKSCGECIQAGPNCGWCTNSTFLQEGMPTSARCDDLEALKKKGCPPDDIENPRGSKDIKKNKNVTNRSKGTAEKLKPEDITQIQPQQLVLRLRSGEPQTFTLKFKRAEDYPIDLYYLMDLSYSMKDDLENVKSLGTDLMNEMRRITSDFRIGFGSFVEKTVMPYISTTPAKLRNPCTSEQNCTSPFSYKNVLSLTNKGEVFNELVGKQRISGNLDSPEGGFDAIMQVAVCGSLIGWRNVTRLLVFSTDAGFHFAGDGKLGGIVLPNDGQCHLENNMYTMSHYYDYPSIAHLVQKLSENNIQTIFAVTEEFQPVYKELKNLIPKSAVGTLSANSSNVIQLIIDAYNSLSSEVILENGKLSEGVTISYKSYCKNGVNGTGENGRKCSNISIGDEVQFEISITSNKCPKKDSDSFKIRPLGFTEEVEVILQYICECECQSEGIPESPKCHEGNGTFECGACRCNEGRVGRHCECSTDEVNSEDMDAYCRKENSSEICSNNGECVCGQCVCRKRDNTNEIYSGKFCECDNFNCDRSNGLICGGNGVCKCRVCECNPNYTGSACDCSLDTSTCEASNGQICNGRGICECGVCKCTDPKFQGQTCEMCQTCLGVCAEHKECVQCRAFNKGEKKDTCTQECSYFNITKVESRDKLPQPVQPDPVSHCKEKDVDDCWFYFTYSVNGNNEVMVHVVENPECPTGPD
Description: (§2) All binding assays used the HTRF (homogeneous time resolved fluorescence) technology from Cisbio International, therefore all assays are described as HTRF binding assays. The assay results for the Examples are listed above together with the characterization data. The HTRF binding assays are established for the following integrins: human αVβ6, human αVβ1, human αVβ3, human αVβ5, and human αVβ8. All assays used the following assay buffer: 20 mM Tris, pH 7.4, 1 mM MgCl2, 1 mM MnCl2, 0.01% Tween 20, and 0.01% BSA. Alternatively, a SPA-based assay was used for evaluation of receptor binding.
(§3) […]

[4] = target: human αVβ3 (Homo sapiens, UniProt P05106+P06756); assay: human αVβ3 HTRF binding assay
Chain of human αVβ3 (P06756 31-992 limits assumed): as the sequence (P06756 31-992 limits assumed) above
Chain of human αVβ3 (P05106 27-718 limits assumed): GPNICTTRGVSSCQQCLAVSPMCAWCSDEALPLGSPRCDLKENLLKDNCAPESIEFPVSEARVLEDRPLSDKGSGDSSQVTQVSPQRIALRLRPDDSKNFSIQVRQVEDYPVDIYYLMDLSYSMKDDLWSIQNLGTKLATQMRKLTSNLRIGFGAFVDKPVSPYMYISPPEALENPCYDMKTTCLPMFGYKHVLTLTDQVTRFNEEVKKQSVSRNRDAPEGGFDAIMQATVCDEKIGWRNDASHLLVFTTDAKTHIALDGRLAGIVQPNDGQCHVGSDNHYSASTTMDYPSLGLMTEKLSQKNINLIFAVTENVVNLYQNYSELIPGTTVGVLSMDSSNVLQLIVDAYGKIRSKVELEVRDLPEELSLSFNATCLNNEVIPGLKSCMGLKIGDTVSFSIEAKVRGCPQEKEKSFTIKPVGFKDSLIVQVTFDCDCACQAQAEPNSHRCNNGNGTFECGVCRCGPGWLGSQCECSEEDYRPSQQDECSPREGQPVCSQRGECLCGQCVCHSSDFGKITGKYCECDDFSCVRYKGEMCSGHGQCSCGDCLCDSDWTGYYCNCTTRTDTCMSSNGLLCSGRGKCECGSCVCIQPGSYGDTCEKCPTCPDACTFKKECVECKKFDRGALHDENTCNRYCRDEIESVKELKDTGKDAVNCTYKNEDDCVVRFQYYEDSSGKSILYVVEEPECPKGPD
Description: as §2, §3

[5] = target: human αVβ5 (Homo sapiens, UniProt P06756+P18084); assay: human αVβ5 HTRF binding assay
Chain of human αVβ5 (P06756 31-992 limits assumed): as the sequence (P06756 31-992 limits assumed) above
Chain of human αVβ5 (P18084 24-719 limits assumed): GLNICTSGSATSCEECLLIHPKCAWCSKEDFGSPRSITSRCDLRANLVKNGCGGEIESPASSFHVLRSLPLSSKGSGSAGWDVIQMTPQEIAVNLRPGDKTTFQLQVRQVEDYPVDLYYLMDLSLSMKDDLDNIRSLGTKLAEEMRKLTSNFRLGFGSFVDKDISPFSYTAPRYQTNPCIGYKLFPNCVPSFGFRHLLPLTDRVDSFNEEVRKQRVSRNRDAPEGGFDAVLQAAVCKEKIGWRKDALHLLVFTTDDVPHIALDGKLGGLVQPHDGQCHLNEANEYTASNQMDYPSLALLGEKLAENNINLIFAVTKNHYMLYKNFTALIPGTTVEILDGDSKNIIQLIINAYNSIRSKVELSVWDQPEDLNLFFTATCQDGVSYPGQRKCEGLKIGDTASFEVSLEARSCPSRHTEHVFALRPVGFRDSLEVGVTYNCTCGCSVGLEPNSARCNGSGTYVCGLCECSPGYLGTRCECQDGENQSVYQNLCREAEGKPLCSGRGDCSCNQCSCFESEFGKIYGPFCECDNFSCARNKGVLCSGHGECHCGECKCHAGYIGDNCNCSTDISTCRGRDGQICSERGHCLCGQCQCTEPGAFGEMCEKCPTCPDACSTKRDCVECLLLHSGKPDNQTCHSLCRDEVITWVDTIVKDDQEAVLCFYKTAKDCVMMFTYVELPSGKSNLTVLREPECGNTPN
Description: as §1

Chain of human αVβ8 (P06756 31-992 limits assumed): as the sequence (P06756 31-992 limits assumed) above
Chain of human αVβ8 (P26012 43-684 limits assumed): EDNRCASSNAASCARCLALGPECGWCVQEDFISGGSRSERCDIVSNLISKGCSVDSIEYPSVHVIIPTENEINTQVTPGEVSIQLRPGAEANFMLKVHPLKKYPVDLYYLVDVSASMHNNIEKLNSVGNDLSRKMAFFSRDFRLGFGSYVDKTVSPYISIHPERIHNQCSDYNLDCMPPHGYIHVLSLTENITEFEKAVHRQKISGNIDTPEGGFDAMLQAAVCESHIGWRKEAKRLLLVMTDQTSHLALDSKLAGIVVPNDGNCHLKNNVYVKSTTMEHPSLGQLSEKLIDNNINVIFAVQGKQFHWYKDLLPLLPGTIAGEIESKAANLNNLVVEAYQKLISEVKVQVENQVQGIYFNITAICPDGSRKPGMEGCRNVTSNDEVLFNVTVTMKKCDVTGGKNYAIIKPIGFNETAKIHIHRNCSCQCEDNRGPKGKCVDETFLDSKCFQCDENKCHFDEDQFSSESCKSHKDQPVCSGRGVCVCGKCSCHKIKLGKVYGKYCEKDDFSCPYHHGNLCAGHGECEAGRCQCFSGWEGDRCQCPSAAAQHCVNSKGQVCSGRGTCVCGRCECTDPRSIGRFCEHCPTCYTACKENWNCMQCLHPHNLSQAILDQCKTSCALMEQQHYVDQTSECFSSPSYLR

IC50 [2] [nM]	SMILES	other results
1.3	Cc1cc(C)c(S(=O)(=O)N[C@@H](CNC(=O)c2cnn(CCc3ccc4c(n3)NCCC4)n2)C(=O)O)c(C)c1 [Example 113]	IC50 [1]: 57 nM; IC50 [3]: 111 nM; IC50 ([4]; read-out: Human αVβ3 IC50): 3 nM; IC50 [5]: 0.3 nM
2	Cc1cc(C)c(S(=O)(=O)N[C@H](CNC(=O)c2cn(CCc3ccc4c(n3)NCCC4)cn2)C(=O)O)c(C)c1 [Example 114]	IC50 [1]: 156 nM; IC50 ([4]; printed as αVβ4, read-out: Human αVβ4 IC50): 4.4 nM; IC50 [5]: 0.5 nM
0.5	Cc1cc(C)c(S(=O)(=O)N[C@@H](CNC(=O)c2cnn(CCc3ccc4c(n3)NCCC4)c2)C(=O)O)c(C)c1 [Example 10, (S)-3-(1-(2-(5,6,7,8-Tetrahydro-1,8-naphthyridin-2-yl)ethyl)-1H-pyrazole-4-carboxamido)-2-((2,4,6-trimethylphenyl)sulfonamido)propanoic acid]	IC50 [1]: 14 nM; IC50 [3]: 6.3 nM; IC50 ([4]; read-out: Human αVβ3 IC50): 1.9 nM; IC50 [5]: 0.2 nM
1.1	O=C(N[C@@H](CNC(=O)c1cnn(CCc2ccc3c(n2)NCCC3)c1)C(=O)O)OCc1ccccc1 [Example 12, (S)-2-(((Benzyloxy)carbonyl)amino)-3-(1-(2-(5,6,7,8-tetrahydro-1,8-naphthyridin-2-yl)ethyl)-1H-pyrazole-4-carboxamido)propanoic acid]	IC50 [1]: 49 nM; IC50 ([4]; read-out: Human αVβ3 IC50): 2.1 nM; IC50 [5]: 0.2 nM
2.3	O=C(N[C@H](CNC(=O)c1cn(CCc2ccc3c(n2)NCCC3)cn1)C(=O)O)OCc1ccccc1 [Example 121]	IC50 [1]: 246 nM; IC50 [3]: 77 nM; IC50 ([4]; read-out: Human αVβ3 IC50): 1.6 nM; IC50 [5]: 0.3 nM
0.5	Cc1cc(C)c(S(=O)(=O)N[C@@H](CNC(=O)c2ccn(CCc3ccc4c(n3)NCCC4)c2)C(=O)O)c(C)c1 [Example 119]	IC50 [1]: 31 nM; IC50 [3]: 6.3 nM; IC50 ([4]; read-out: Human αVβ3 IC50): 1.5 nM; IC50 [5]: 0.2 nM
4.1	CCCS(=O)(=O)N[C@@H](CNC(=O)c1cnn(CCc2ccc3c(n2)NCCC3)c1)C(=O)O [Example 138]	–
49	CC(C)(C)c1cc(Br)cc([C@H](CC(=O)O)NC(=O)c2cnn(CCCc3ccc4c(n3)NCCC4)c2)c1 [Example 61]	–
0.4	CCCCC(CC)COC(=O)N[C@@H](CNC(=O)c1cnn(CCc2ccc3c(n2)NCCC3)c1)C(=O)O (stereo partly drawn) [Example 152]	–
141	O=C(O)CC(NC(=O)c1cn(CCc2ccc3c(n2)NCCC3)nc1CO)c1cc(Cl)cc(Cl)c1 (stereo not drawn) [Example 4, 3-(3,5-Dichlorophenyl)-3-(3-(hydroxymethyl)-1-(2-(5,6,7,8-tetrahydro-1,8-naphthyridin-2-yl)ethyl)-1H-pyrazole-4-carboxamido)propanoic acid]	–
278	Cc1nn(CCc2ccc3c(n2)NCCC3)c(C)c1C(=O)NC(CC(=O)O)c1cc(Cl)cc(Cl)c1 (stereo not drawn) [Example 83]	–
49	O=C(O)CC(NC(=O)c1cnn(CCc2ccc3c(n2)NCCC3)c1CO)c1ccc(C(F)(F)F)cc1 (stereo not drawn) [Example 62]	–
416	Cc1ccccc1[C@H](CC(=O)O)NC(=O)c1cnn(CCc2ccc3c(n2)NCCC3)c1CO [Example 92]	–
2.7	O=C(NC[C@H](NS(=O)(=O)CC1CC1)C(=O)O)c1cnn(CCc2ccc3c(n2)NCCC3)c1 [Example 159]	–
120	O=C(O)CC(NC(=O)c1cnn(CCc2ccc3c(n2)NCCC3)c1CO)c1ccc(F)cc1 (stereo not drawn) [Example 71]	–
23	Cc1c(C(=O)NC(CC(=O)O)c2cc(Cl)cc(Cl)c2)cnn1CCc1ccc2c(n1)NCCC2 (stereo not drawn) [Example 49]	–
102	O=C(O)C[C@H](NC(=O)c1cn(CCc2ccc3c(n2)NCCC3)cn1)c1cc(Cl)cc(Cl)c1 [Example 116]	–
1050	CC(C)(C)OCc1nn(CCc2ccc3c(n2)NCCC3)cc1C(=O)NC(CC(=O)O)c1ccc(C(F)(F)F)cc1 (stereo not drawn) [Example 95]	–
1460	Cc1nc2c(cc1Cn1cc(C(=O)NC(CC(=O)O)c3cc(Cl)cc(Cl)c3)c(C)n1)CCCN2 (stereo not drawn) [Example 100]	–
10	O=C(NC[C@H](NS(=O)(=O)Cc1ccccc1F)C(=O)O)c1cnn(CCc2ccc3c(n2)NCCC3)c1 [Example 166]	–
13	O=C(O)CC(NC(=O)c1cnn(CCc2ccc3c(n2)NCCC3)c1CO)c1cccc(Oc2cc(Cl)cc(Cl)c2)c1 (stereo not drawn) [Example 38]	–

IC50 [2] [nM]	SMILES	other results
64	O=C(O)CC(NC(=O)c1cnn(CCc2ccc3c(n2)NCCC3)c1CO)c1ccc2c(c1)OCO2 (stereo not drawn) [Example 65]	–
363	CCN(C(=O)c1cnn(CCc2ccc3c(n2)NCCC3)c1)C(CC(=O)O)c1ccc(OC)nc1 (stereo not drawn) [Example 17, 3-(N-Ethyl-1-(2-(5,6,7,8-tetrahydro-1,8-naphthyridin-2-yl)ethyl)-1H-pyrazole-4-carboxamido)-3-(6-methoxypyridin-3-yl)propanoic acid]	–
3.1	O=C(O)CC(NC(=O)c1cnn(CCc2ccc3c(n2)NCCC3)c1)c1ccc(Cl)c(C(F)(F)F)c1 (stereo not drawn) [Example 24]	–
5.5	O=C(NC[C@H](NS(=O)(=O)Cc1ccccc1Cl)C(=O)O)c1cnn(CCc2ccc3c(n2)NCCC3)c1 [Example 155]	–
5.1	Cc1ccc(Oc2cccc(C(CC(=O)O)NC(=O)c3cnn(CCc4ccc5c(n4)NCCC5)c3CO)c2)cc1 (stereo not drawn) [Example 27]	–
5000	Cc1nc2c(cc1CCn1ncc(C(=O)NC(CC(=O)O)c3cc(Cl)cc(Cl)c3)c1CO)CCCN2 (stereo not drawn) [Example 107]	–
14	COCCS(=O)(=O)N[C@@H](CNC(=O)c1cnn(CCc2ccc3c(n2)NCCC3)c1)C(=O)O [Example 147]	–
14	Cc1cc(C)c(S(=O)(=O)N[C@@H](CNC(=O)c2cnn(CCCNC3=NCCN3)c2)C(=O)O)c(C)c1 [Example 171]	–
0.9	O=C(NC[C@H](NS(=O)(=O)CCc1cccc2ccccc12)C(=O)O)c1cnn(CCc2ccc3c(n2)NCCC3)c1 [Example 139]	–
284	CC(C)(C)OCc1nn(CCc2ccc3c(n2)NCCC3)cc1C(=O)NC(CC(=O)O)c1ccc(Cl)c(Cl)c1 (stereo not drawn) [Example 84]	–
178	O=C(O)CC(NC(=O)c1cnn(CCc2ccc3c(n2)NCCC3)c1CO)c1cc(F)cc(F)c1 (stereo not drawn) [Example 80]	–
7.1	O=C(O)C[C@H](NC(=O)c1cnn(CCc2ccc3c(n2)NCCC3)n1)c1cc(Cl)cc(Cl)c1 [Example 13, (S)-3-(3,5-Dichlorophenyl)-3-(2-(2-(5,6,7,8-tetrahydro-1,8-naphthyridin-2-yl)ethyl)-2H-1,2,3-triazole-4-carboxamido)propanoic acid]	–
1.4	O=C(NC[C@@H](NC(=O)[C@@H]1CCCN1S(=O)(=O)c1ccccc1)C(=O)O)c1cnn(CCc2ccc3c(n2)NCCC3)c1 [Example 21]	–
178	O=C(O)CC(NC(=O)c1cn(CCCc2ccc3c(n2)NCCC3)nc1CO)c1cc(Cl)cc(Cl)c1 (stereo not drawn) [Example 6, 3-(3,5-Dichlorophenyl)-3-(3-(hydroxymethyl)-1-(3-(5,6,7,8-tetrahydro-1,8-naphthyridin-2-yl)propyl)-1H-pyrazole-4-carboxamido)propanoic acid]	–
13	COc1ccc([C@H](CC(=O)O)N(C)C(=O)c2cnn(CCc3ccc4c(n3)NCCC4)c2)cc1F [Example 18]	–
4.7	COCCOC(=O)N[C@@H](CNC(=O)c1cnn(CCc2ccc3c(n2)NCCC3)c1)C(=O)O [Example 149]	–
6.1	Cc1cc(C)c(S(=O)(=O)N[C@H](CNC(=O)c2cnn(CCCc3ccc4c(n3)NCCC4)c2)C(=O)O)c(C)c1 [Example 28]	–
592	COc1ccc([C@H](CC(=O)O)NC(=O)c2cnn(CCCNc3ccccn3)c2)cn1 [Example 94]	–
3	O=C(NC[C@H](NS(=O)(=O)CCC(F)(F)F)C(=O)O)c1cnn(CCc2ccc3c(n2)NCCC3)c1 [Example 129]	–
1.9	CC(C)(C)c1cc(Br)cc([C@H](CC(=O)O)NC(=O)c2cnn(CCc3ccc4c(n3)NCCC4)c2)c1 [Example 22]	–
1.5	CCCOC(=O)N[C@@H](CNC(=O)c1cnn(CCc2ccc3c(n2)NCCC3)c1)C(=O)O [Example 127]	–

SMILES	IC50 [2] [nM]	other results
CCCCOC(=O)N[C@@H](CNC(=O)c1cnn(CCc2ccc3c(n2)NCCC3)c1)C(=O)O [Example 20, (S)-2-((Butoxycarbonyl)amino)-3-(1-(2-(5,6,7,8-tetrahydro-1,8-naphthyridin-2-yl)ethyl)-1H-pyrazole-4-carboxamido)propanoic acid]	1.1	IC50 [1]: 86 nM; IC50 [3]: 27 nM; IC50 ([4]; read-out: Human αVβ3 IC50): 1.8 nM; IC50 [5]: 0.2 nM
